Measured values published in patent publication US9562082B2, “Production of glycoproteins with low N-glycolylneuraminic acid (Neu5Gc) content” (LEK Pharmaceuticals D.D., priority 2009, dated 2017).

Test system: Recombinant CHO cells
Experiment: Content of the most acidic isoforms 7 and 8 (degree of sialylation) of secreted glycoprotein by AEX
Format: cell-based, Chinese hamster
Settings: for percentage of the most acidic isoforms: 0.75% (w/v) DMSO
Description: Throughout the entire description, above and below and including the examples, unless explicitly stated otherwise, the degree of sialylation is given in % (w/w) and was calculated as follows. Since the inventor had not available a method to directly measure the degree of sialylation (%, w/w), she estimated same indirectly from the relative content of the most acidic isoforms of each glycoprotein. Since isoforms 7 and 8 (see next paragraph) are the most acidic ones, she figured out that an increase of isoforms 7 and 8 is an indicator for the increased degree of sialylation. The inventor measured the distribution of the isoforms of a particular glycoprotein (e.g., of darbepoetin alfa, which is a cytokine) with AEX (anion exchange chromatography). AEX is not a quantitative method. Therefore, the inventor split the histogram into three parts as follows: the most basic isoforms 1, 2, and 3, the middle acidic isoforms 4, 5, and 6, and the most acidic isoforms 7 and 8. […] Therefore, the inventor compared, for each glycoprotein tested, the content (%, w/w) of the most acidic isoforms resulting from media without and from media with the additives according to the invention. In case their content increased, the inventor concluded that the degree of sialylation had likewise increased. Therefore, the degree of sialylation in the present application is given as the relative content of the most acidic isoforms (%, w/w). The increase in the degree of sialylation (of a particular glycoprotein obtained from a host cell culture using a medium with the additives according to the present invention vs. that of said glycoprotein obtained from a host cell culture using a medium without the inventive additives) is given on the basis of the increase of the content of the most acidic isoforms (%) after cultivating the host cells in the presence vs. absence of said additives. Recombinant CHO cells expressing high titres of the glycosylated human glycoproteins were cultivated in suspension culture using rich in-house standard medium without additives according to the invention. After 2 weeks of passages, the cells were first harvested and subsequently inoculated into the same medium, however, supplemented with a range of DMSO concentrations from 0.25% to 1.50% (w/v). The effect of DMSO on growth, productivity, degree of sialylation, and Neu5Gc content was studied. “One factor at the time”-experiments with different DMSO concentrations at 37° C. and 33° C., respectively, were performed at first in an attempt to determine the DMSO concentration and temperature which are best to minimise the Neu5Gc content on the glycoproteins secreted. To study the interaction between the parameters (i) DMSO concentration, (ii) time of DMSO addition, and (iii) time of the temperature shift (from 37° C. to 33° C.), further experiments were performed with the Design-Expert/Design-Ease programme (Stat-Ease, Inc., Minneapolis, Minn., USA) using the response surface method. Parameters (i), (ii), and (iii) were chosen as numeric factors and the axial points were set slightly out of already known ranges in order to cover a wide design space. One replicate on axial points, one replicate on factorial points and 4 centre points were performed. The results were analysed using the Design of Expert (DOE) software (Design-Expert, Version 7.1). The results of the shake flask experiments were confirmed in the Biostat®B bioreactor (Sartorius, B. Braun Biotech International, Germany). Exponentially growing cells were taken from cell culture flasks having a surface area of 225 cm^2 (Corning®Costar®). A Biostat®B bioreactor with a working volume of 5 litres was inoculated with 2×10^5 cells/ml. […] Following glycoprotein purification, the isoform distribution of the immuno-affinity purified glycoproteins was determined by anion exchange chromatography (AEX). The chromatographic separation of various isoforms is based on the differences in their charges. […]

SMILES: C[S+](C)[O-] [DMSO, dimethyl sulfoxide]
- average content of the most acidic isoforms, all glycoproteins tested (0.5% DMSO): 1.31%
- average content of the most acidic isoforms, all glycoproteins tested (0.75% DMSO): 1.28%
- average content of the most acidic isoforms, all glycoproteins tested (1% DMSO): 1.21%
- average content of the most acidic isoforms, all glycoproteins tested (1.25% DMSO): 1.26%
- Isoforms 7&8, DOE point prediction (DMSO 0.75, temperature 37): 1.21%
- percentage of the most acidic isoforms (bioreactor batch process): about 2.2%
- percentage of the most acidic isoforms (shake flask batch process): about 1.35%
